This note sets out measurements from patent US10053435B2, “Furoxan compound, and manufacturing method for same” (NATIONAL UNIVERSITY CORPORATION KOBE UNIVERSITY, priority 2015, dated 2018).

The test is described as follows: Nitric oxide-releasing ability (Griess reagent, with L-cysteine in phosphate buffer). The settings on record: for Nitric oxide-releasing rate: 0.1 mM furoxan compound, 5 mM L-cysteine, 50 mM phosphate buffer pH 7.4, 37° C., 1 hour, one molecule of furoxan taken to release one molecule of nitric oxide; for nitric oxide-releasing ability (in words): conclusion from Table 1; for 3 - X/4 - X (NO-releasing rate of 3-halofuroxan/NO-releasing rate of 4-halofuroxan): ratio of the rates of the 3-halo and 4-halo isomers, same conditions as the releasing rate. Here is the method: The ability to release nitric oxide on each of (4-fluoro-3-(4-methylphenyl)furoxan, 3-fluoro-4-(4-methylphenyl)furoxan, 4-chloro-3-(4-methylphenyl)furoxan, and 3-chloro-4-(4-methylphenyl)furoxan was evaluated by the following method.
Each furoxan compound and L-cysteine were dissolved in 50 mM phosphate buffer (pH 7.4) to have a concentration of 0.1 mM and 5 mM, respectively, thereby to prepare a solution with a total volume of 6 mL. After stirring the solution at 37° C. for 1 hour, 3 mL of the solution was added to a light absorption cell and 250 μL of Griess reagent was added. After being left to stand at room temperature for 10 minutes, the absorbance was measured. The nitric oxide-releasing rate was obtained from a calibration curve prepared in advance using a sodium nitrite solution.
(In general: Nitrite, measured by Griess reagent, commonly stands in for NO production.)

For the compound `Cc1ccc(-c2no[n+]([O-])c2Cl)cc1` [3-Chloro compound, 3-chloro-4-(4-methylphenyl)furoxan, reference compound], the Nitric oxide-releasing rate came out at 16.7%.
As for `Cc1ccc(-c2no[n+]([O-])c2F)cc1` [3-Fluoro compound, 3-fluoro-4-(4-methylphenyl)furoxan], the Nitric oxide-releasing rate turned out to be 36.8% and the “nitric oxide-releasing ability (in words)” value is listed as “extremely high nitric oxide-releasing ability”. The “nitric oxide-releasing rate compared to that of the 3-chlorofuroxan compound” value (3-fluoro versus 3-chloro compound, same conditions) was “twice or more”.
Consider `Cc1ccc(-c2c(Cl)no[n+]2[O-])cc1` [4-Chloro compound, 4-chloro-3-(4-methylphenyl)furoxan, reference compound], for which the Nitric oxide-releasing rate amounted to 4.2% and the “3 - X/4 - X (NO-releasing rate of 3-halofuroxan/NO-releasing rate of 4-halofuroxan)” value was 4.0 times.
For `Cc1ccc(-c2c(F)no[n+]2[O-])cc1` [4-Fluoro compound, 4-fluoro-3-(4-methylphenyl)furoxan], the Nitric oxide-releasing rate was 2.5%, the “nitric oxide-releasing ability (in words)” value is listed as “almost no nitric oxide-releasing ability” and the “3 - X/4 - X (NO-releasing rate of 3-halofuroxan/NO-releasing rate of 4-halofuroxan)” value came out at 14.7 times.
